# ChEMBL document CHEMBL2390830 (Eur J Med Chem, 2013)
# Structures can show the parent of a compound that is named as a salt.
# Key:
# [1] = target: T1, 5-hydroxytryptamine receptor 1A (Rattus norvegicus, UniProt P19327); assay: Displacement of [3H]8-OH-DPAT from 5-HT1A receptor in Wistar rat cerebral hippocampus membrane after 10 mins; format: tissue-based; details: read-out: Ki(app)
# T1 sequence (P19327 whole entry): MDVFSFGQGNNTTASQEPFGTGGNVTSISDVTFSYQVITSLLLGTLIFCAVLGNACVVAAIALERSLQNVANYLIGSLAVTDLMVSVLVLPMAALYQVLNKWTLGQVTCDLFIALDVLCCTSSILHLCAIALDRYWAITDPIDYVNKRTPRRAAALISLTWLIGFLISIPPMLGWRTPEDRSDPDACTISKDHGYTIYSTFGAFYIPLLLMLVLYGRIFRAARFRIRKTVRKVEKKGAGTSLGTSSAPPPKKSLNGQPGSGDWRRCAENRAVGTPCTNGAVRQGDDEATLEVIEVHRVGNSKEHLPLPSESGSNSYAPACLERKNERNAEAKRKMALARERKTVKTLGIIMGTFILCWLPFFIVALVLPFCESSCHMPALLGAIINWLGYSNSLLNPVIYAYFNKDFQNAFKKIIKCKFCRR
# [2] = Binding affinity to human PCP receptor by radioligand displacement assay
# [3] = target: Voltage-gated L-type calcium channel (Homo sapiens, UniProt Q13936+Q13698+Q01668+O60840); assay: Binding affinity to L-Ca2+ channel verapamil site (unknown origin) by radioligand displacement assay
# [4] = Binding affinity to P2X receptor (unknown origin) by radioligand displacement assay; design: species or system Homo sapiens
# [5] = target: T2, 5-hydroxytryptamine receptor 2C (Homo sapiens, UniProt P28335); assay: Binding affinity to human 5-HT2C receptor by radioligand displacement assay
# T2 sequence (P28335 whole entry): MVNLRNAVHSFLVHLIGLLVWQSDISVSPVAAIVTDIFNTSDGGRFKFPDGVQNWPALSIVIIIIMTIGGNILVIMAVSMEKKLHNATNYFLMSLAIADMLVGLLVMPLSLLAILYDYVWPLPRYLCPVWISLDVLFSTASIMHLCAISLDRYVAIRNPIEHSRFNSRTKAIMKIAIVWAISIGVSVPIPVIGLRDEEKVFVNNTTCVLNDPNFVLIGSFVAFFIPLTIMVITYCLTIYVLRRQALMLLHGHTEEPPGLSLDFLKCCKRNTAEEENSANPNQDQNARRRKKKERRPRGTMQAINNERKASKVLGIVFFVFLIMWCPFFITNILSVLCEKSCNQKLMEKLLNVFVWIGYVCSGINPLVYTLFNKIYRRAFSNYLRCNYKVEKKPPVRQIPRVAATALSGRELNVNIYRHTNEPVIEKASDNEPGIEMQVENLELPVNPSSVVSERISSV
# [6] = Binding affinity to GABA-gated chloride channel (unknown origin) by radioligand displacement assay; design: species or system Homo sapiens
# [7] = Binding affinity to sodium channel site 2 (unknown origin) by radioligand displacement assay; design: species or system Homo sapiens
# [8] = Binding affinity to human PACAP receptor by radioligand displacement assay
# [9] = target: T3, Muscarinic acetylcholine receptor M5 (Homo sapiens, UniProt P08912); assay: Binding affinity to human muscarinic M5 receptor by radioligand displacement assay
# T3 sequence (P08912 whole entry): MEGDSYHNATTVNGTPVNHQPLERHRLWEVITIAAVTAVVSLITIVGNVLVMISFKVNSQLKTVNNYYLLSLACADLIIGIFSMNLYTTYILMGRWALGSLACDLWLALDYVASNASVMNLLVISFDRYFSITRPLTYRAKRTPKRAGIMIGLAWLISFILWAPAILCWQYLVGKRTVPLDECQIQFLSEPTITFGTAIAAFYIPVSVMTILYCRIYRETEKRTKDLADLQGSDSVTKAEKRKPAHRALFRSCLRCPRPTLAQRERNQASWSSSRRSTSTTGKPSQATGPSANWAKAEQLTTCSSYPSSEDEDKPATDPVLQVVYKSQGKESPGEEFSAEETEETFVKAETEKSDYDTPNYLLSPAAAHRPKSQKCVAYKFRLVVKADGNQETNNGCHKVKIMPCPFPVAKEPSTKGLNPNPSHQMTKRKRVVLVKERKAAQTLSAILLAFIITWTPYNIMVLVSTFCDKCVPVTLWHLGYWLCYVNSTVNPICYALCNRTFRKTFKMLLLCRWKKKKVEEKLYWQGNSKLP
# [10] = Binding affinity to P2Y receptor (unknown origin) by radioligand displacement assay; design: species or system Homo sapiens
# [11] = Binding affinity to peripheral BZD receptor (unknown origin) by radioligand displacement assay; design: species or system Homo sapiens
# [12] = Binding affinity to somatostatin receptor (unknown origin) by radioligand displacement assay; design: species or system Homo sapiens
compound,measurement,setting,value
COc1ccccc1N1CCN(CCCCN2Cc3ccc4ccccc4c3C2=O)CC1,Ki,[1],13 nM
C[C@]12N[C@H](Cc3ccccc31)c1ccccc12 [DIZOCILPINE MALEATE],IC50,[2],4.3 nM
same,Ki,[2],2.4 nM
COc1ccc(CCN(C)CCCC(C#N)(c2cc(OC)c(OC)c(OC)c2)C(C)C)cc1OC (centres undefined) [GALLOPAMIL],IC50,[3],1.1 ×10⁻⁸ M
same,Ki,[3],5.4 ×10⁻⁹ M
COc1ccccc1N1CCN(CCCN2Cc3ccc4ccccc4c3C2=O)CC1,Ki,[1],46 nM
O=C1c2c(c(Cl)nc3ccccc23)CN1CCCCN1CCN(c2cccc(Cl)c2Cl)CC1,Ki,[1],31 nM
COc1ccccc1N1CCN(CCCCN2Cc3nc4ccccc4cc3C2=O)CC1,Ki,[1],15 nM
O=C1c2cc3ccccc3nc2CN1CCCCCN1CCN(c2cccc(Cl)c2Cl)CC1,Ki,[1],58 nM
COc1ccccc1N1CCN(CCCCN2Cc3c(Cl)nc4ccccc4c3C2=O)CC1,Ki,[1],17 nM
Nc1ncnc2c1ncn2[C@@H]1O[C@H](COP(=O)(O)CP(=O)(O)OP(=O)(O)O)[C@@H](O)[C@H]1O [DIPHOSPHOMETHYLPHOSPHONIC ACID ADENOSYL ESTER],IC50,[4],2.1 nM
same,Ki,[4],0.97 nM
"COc1cc(OC)c(C(=O)CCCCN2CCC3(CC2)NC(=O)NC3=O)cc1NS(=O)(=O)c1ccc(C(F)(F)F)cc1 [RS-102,221]",IC50,[5],2.7 nM
same,Ki,[5],0.91 nM
O=C1c2cc3ccccc3nc2CN1CCCCN1CCN(c2cccc(Cl)c2Cl)CC1,Ki,[1],30 nM
C=C(C)[C@@H]1[C@H]2OC(=O)[C@@H]1[C@]1(O)C[C@H]3O[C@]34C(=O)O[C@H]2[C@]14C [PICROTOXININ],IC50,[6],120 nM
same,Ki,[6],96 nM
O=C1c2c(c(Cl)nc3ccccc23)CN1CCCCCN1CCN(c2cccc(Cl)c2Cl)CC1,Ki,[1],878 nM
O=C1c2c(ccc3ccccc23)CN1CCCCN1CCN(c2cccc(Cl)c2Cl)CC1,Ki,[1],31 nM
COc1ccc(C(=O)O[C@H]2CC[C@@]3(C)[C@@H]4CC[C@H]5[C@]6(O)C[C@H](O)[C@@]7(O)[C@@H](CN8C[C@@H](C)CC[C@H]8[C@@]7(C)O)[C@]6(O)C[C@@]53O[C@]24O)cc1OC [VERATRIDINE],IC50,[7],5200 nM
same,Ki,[7],4700 nM
O=C1c2c(ccc3ccccc23)CN1CCCCCN1CCN(c2cccc(Cl)c2Cl)CC1,Ki,[1],490 nM
COc1ccccc1N1CCN(CCCCCN2Cc3nc4ccccc4cc3C2=O)CC1,Ki,[1],20 nM
CC[C@H](C)[C@H](NC(=O)CNC(=O)[C@H](CC(=O)O)NC(=O)[C@H](CO)NC(=O)[C@@H](N)Cc1cnc[nH]1)C(=O)N[C@@H](Cc1ccccc1)C(=O)N[C@H](C(=O)N[C@@H](CC(=O)O)C(=O)N[C@@H](CO)C(=O)N[C@@H](Cc1ccc(O)cc1)C(=O)N[C@@H](CO)C(=O)N[C@@H](CCCNC(=N)N)C(=O)N[C@@H](Cc1ccc(O)cc1)C(=O)N[C@@H](CCCNC(=N)N)C(=O)N[C@@H](CCCCN)C(=O)N[C@@H](CCC(N)=O)C(=O)N[C@@H](CCSC)C(=O)N[C@@H](C)C(=O)N[C@H](C(=O)N[C@@H](CCCCN)C(=O)N[C@@H](CCCCN)C(=O)N[C@@H](Cc1ccc(O)cc1)C(=O)N[C@@H](CC(C)C)C(=O)N[C@@H](C)C(=O)N[C@@H](C)C(=O)N[C@H](C(=O)N[C@@H](CC(C)C)C(=O)NCC(=O)N[C@@H](CCCCN)C(=O)N[C@@H](CCCNC(=N)N)C(=O)N[C@@H](Cc1ccc(O)cc1)C(=O)N[C@@H](CCCCN)C(=O)N[C@@H](CCC(N)=O)C(=O)N[C@@H](CCCNC(=N)N)C(=O)N[C@H](C(=O)N[C@@H](CCCCN)C(=O)N[C@@H](CC(N)=O)C(=O)N[C@@H](CCCCN)C(N)=O)C(C)C)C(C)C)C(C)C)[C@@H](C)O,IC50,[8],0.057 nM
same,Ki,[8],0.049 nM
C[N+]1(C)CCC(OC(=O)C(c2ccccc2)c2ccccc2)CC1 [4-DAMP],IC50,[9],0.45 nM
same,Ki,[9],0.22 nM
Nc1ncnc2c1ncn2[C@H]1C[C@H](O)[C@@H](COP(O)(=S)OP(=O)(O)OP(=O)(O)O)O1 (some centres undefined),IC50,[10],45 nM
same,Ki,[10],23 nM
CCC(C)N(C)C(=O)c1cc2ccccc2c(-c2ccccc2Cl)n1 (centres undefined) [PK-11195],IC50,[11],0.99 nM
same,Ki,[11],0.89 nM
COc1ccccc1N1CCN(CCCN2Cc3nc4ccccc4cc3C2=O)CC1,Ki,[1],104 nM
C[C@H](N)C(=O)NCC(=O)N[C@H]1CSSC[C@@H](C(=O)O)NC(=O)[C@H](CO)NC(=O)[C@H]([C@@H](C)O)NC(=O)[C@H](Cc2ccccc2)NC(=O)[C@H]([C@@H](C)O)NC(=O)[C@H](CCCCN)NC(=O)[C@H](Cc2c[nH]c3ccccc23)NC(=O)[C@H](Cc2ccccc2)NC(=O)[C@H](Cc2ccccc2)NC(=O)[C@H](CC(N)=O)NC(=O)[C@H](CCCCN)NC1=O [SOMATOSTATIN],IC50,[12],0.33 nM
same,Ki,[12],0.2 nM
